pEC50, pKi: −log10 of the molar value.
Assays:
GST-Bcl-2 = GST-Bcl-2 (Homo sapiens, UniProt P10415); test: TR-FRET binding assay, GST-Bcl-2 with F-Bak peptide probe; details: TR-FRET Binding Affinity, GST-Bcl-2, F-Bak peptide probe
In short: (§1)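 Compounds were serially diluted in DMSO from a 50 μM starting solution (2× the starting concentration; 10% DMSO). Plates were incubated for 3 h at room temperature, and TR-FRET was read with 340/35 nm excitation and emission at 520/525 nm (F-Bak) and 495/510 nm (Tb antibody). Ki values were calculated using Wang's competitive-binding equation.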

GST-Bcl-XL = GST-Bcl-XL (Homo sapiens, UniProt Q07817); test: TR-FRET binding assay, GST-Bcl-XL with F-Bak peptide probe; details: TR-FRET Binding Affinity, GST-Bcl-XL, F-Bak peptide probe
GST-Bcl-XL, sequence (Q07817 whole entry): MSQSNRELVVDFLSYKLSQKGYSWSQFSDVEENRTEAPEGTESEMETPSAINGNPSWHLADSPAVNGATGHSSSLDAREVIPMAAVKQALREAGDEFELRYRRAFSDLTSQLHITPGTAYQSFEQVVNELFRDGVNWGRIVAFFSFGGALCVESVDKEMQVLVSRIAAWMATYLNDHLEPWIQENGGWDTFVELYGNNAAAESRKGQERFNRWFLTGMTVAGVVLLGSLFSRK
In short: as §1

FL5.12/Bcl-2 cells = test: FL5.12/Bcl-2 cell viability assay under IL-3 withdrawal (CellTitre Glo); format: cell-based, murine; details: Mus musculus, IL-3 withdrawn 48 hrs, then 24 hrs with compound
In short: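 Bcl-2-overexpressing murine FL5.12 transfectants underwent IL-3 removal for 48 hrs before a 24 hr compound treatment. Cell viability was quantified with CellTitre Glo.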

GST-Bcl-2, sequence (P10415 whole entry): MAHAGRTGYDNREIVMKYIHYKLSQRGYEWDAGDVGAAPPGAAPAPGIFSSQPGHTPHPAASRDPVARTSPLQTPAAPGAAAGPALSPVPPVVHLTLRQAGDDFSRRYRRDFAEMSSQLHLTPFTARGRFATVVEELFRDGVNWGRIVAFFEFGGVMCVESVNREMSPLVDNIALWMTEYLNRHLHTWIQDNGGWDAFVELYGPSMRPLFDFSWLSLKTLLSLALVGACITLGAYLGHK

Row | SMILES | pKi (GST-Bcl-2) | pKi (GST-Bcl-XL) | pEC50 (FL5.12/Bcl-2 cells)
1 | C#Cc1cc(S(=O)(=O)NC(=O)c2ccc(N3CCN(CC4=C(c5ccc(Cl)cc5)CC(C)(C)CC4)CC3)cc2Oc2cccc3[nH]ccc23)cnc1OCC1CCOCC1 [Example 391, 4-(4-{[2-(4-chlorophenyl)-4,4-dimethylcyclohex-1-en-1-yl]methyl}piperazin-1-yl)-N-{[5-ethynyl-6-(tetrahydro-2H-pyran-4-ylmethoxy)pyridin-3-yl]sulfonyl}-2-(1H-indol-4-yloxy)benzamide] | 8.45 | < 6.18 | < 6.30
2 | CC1(C)CCC(CN2CCN(c3ccc(C(=O)NS(=O)(=O)c4ccc(NN5CCCCC5)c([N+](=O)[O-])c4)c(Oc4ccc5[nH]ccc5c4)c3)CC2)=C(c2ccc(Cl)cc2)C1 [Example 284, 4-(4-{[2-(4-chlorophenyl)-4,4-dimethylcyclohex-1-en-1-yl]methyl}piperazin-1-yl)-2-(1H-indol-5-yloxy)-N-{[3-nitro-4-(piperidin-1-ylamino)phenyl]sulfonyl}benzamide] | 8.81 | < 6.18 | < 6.30
3 | CC1(C)CCC(CN2CCN(c3ccc(C(=O)NS(=O)(=O)c4ccc(NCCCS(C)(=O)=O)c([N+](=O)[O-])c4)c(Oc4cccc5[nH]ccc45)c3)CC2)=C(c2ccc(Cl)cc2)C1 [Example 294, 4-(4-{[2-(4-chlorophenyl)-4,4-dimethylcyclohex-1-en-1-yl]methyl}piperazin-1-yl)-2-(1H-indol-4-yloxy)-N-[(4-{[3-(methylsulfonyl)propyl]amino}-3-nitrophenyl)sulfonyl]benzamide] | 9.59 | 7.19 | 7.22
4 | CC1(C)CCC(CN2CCN(c3ccc(C(=O)NS(=O)(=O)c4ccc(NCC5(O)CCCCC5)c([N+](=O)[O-])c4)c(Oc4ccc5[nH]ccc5c4)c3)CC2)=C(c2ccc(Cl)cc2)C1 [Example 238, 4-(4-{[2-(4-chlorophenyl)-4,4-dimethylcyclohex-1-en-1-yl]methyl}piperazin-1-yl)-N-[(4-{[(1-hydroxycyclohexyl)methyl]amino}-3-nitrophenyl)sulfonyl]-2-(1H-indol-5-yloxy)benzamide] | 9.37 | < 6.18 | 7.23
5 | CC1(C)CCC(CN2CCN(c3ccc(C(=O)NS(=O)(=O)c4ccc(NC5CCN(CCCO)CC5)c([N+](=O)[O-])c4)c(Oc4cccc5[nH]ccc45)c3)CC2)=C(c2ccc(Cl)cc2)C1 [Example 195, 4-(4-{[2-(4-chlorophenyl)-4,4-dimethylcyclohex-1-en-1-yl]methyl}piperazin-1-yl)-N-[(4-{[1-(3-hydroxypropyl)piperidin-4-yl]amino}-3-nitrophenyl)sulfonyl]-2-(1H-indol-4-yloxy)benzamide] | 10.41 | 8.17 | 7.95
6 | CN1CCC(COc2ccc(S(=O)(=O)NC(=O)c3ccc(N4CCN(CC5=C(c6ccc(Cl)cc6)CC(C)(C)CC5)CC4)cc3Oc3ccc4[nH]ccc4c3)cc2[N+](=O)[O-])CC1 [Example 354, 4-(4-{[2-(4-chlorophenyl)-4,4-dimethylcyclohex-1-en-1-yl]methyl}piperazin-1-yl)-2-(1H-indol-5-yloxy)-N-({4-[(1-methylpiperidin-4-yl)methoxy]-3-nitrophenyl}sulfonyl)benzamide] | 10.44 | 8.27 | 8.25
7 | CC1(C)CCC(CN2CCN(c3ccc(C(=O)NS(=O)(=O)c4ccc(OCC#CCN5CCOCC5)c([N+](=O)[O-])c4)c(Oc4ccc5[nH]ccc5c4)c3)CC2)=C(c2ccc(Cl)cc2)C1 [Example 390, 4-(4-{[2-(4-chlorophenyl)-4,4-dimethylcyclohex-1-en-1-yl]methyl}piperazin-1-yl)-2-(1H-indol-5-yloxy)-N-({4-[(4-morpholin-4-ylbut-2-ynyl)oxy]-3-nitrophenyl}sulfonyl)benzamide] | 9.47 | 6.94 | 7.39
8 | CC1(C)CCC(CN2CCN(c3ccc(C(=O)NS(=O)(=O)c4ccc(OCC5CCOCC5)c([N+](=O)[O-])c4)c(Oc4cccc5[nH]ccc45)c3)CC2)=C(c2ccc(Cl)cc2)C1 [Example 289, 4-(4-{[2-(4-chlorophenyl)-4,4-dimethylcyclohex-1-en-1-yl]methyl}piperazin-1-yl)-2-(1H-indol-4-yloxy)-N-{[3-nitro-4-(tetrahydro-2H-pyran-4-ylmethoxy)phenyl]sulfonyl}benzamide] | 9.95 | < 6.18 | 7.56
9 | CC1(C)CCC(CN2CCN(c3ccc(C(=O)NS(=O)(=O)c4ccc(NC5CCN(S(C)(=O)=O)CC5)c([N+](=O)[O-])c4)c(Oc4ccc5[nH]ccc5c4)c3)CC2)=C(c2ccc(Cl)cc2)C1 [Example 335, 4-(4-{[2-(4-chlorophenyl)-4,4-dimethylcyclohex-1-en-1-yl]methyl}piperazin-1-yl)-2-(1H-indol-5-yloxy)-N-[(4-{[1-(methylsulfonyl)piperidin-4-yl]amino}-3-nitrophenyl)sulfonyl]benzamide] | 9.36 | < 6.18 | 7.41
10 | CC1(C)CCC(CN2CCN(c3ccc(C(=O)NS(=O)(=O)c4ccc(NCC(F)(F)F)c([N+](=O)[O-])c4)c(Oc4ccc5[nH]ccc5c4)c3)CC2)=C(c2ccc(Cl)cc2)C1 [Example 344, 4-(4-{[2-(4-chlorophenyl)-4,4-dimethylcyclohex-1-en-1-yl]methyl}piperazin-1-yl)-2-(1H-indol-5-yloxy)-N-({3-nitro-4-[(2,2,2-trifluoroethyl)amino]phenyl}sulfonyl)benzamide] | 9.55 | 6.35 | 7.15
11 | CC(C)(C)c1ccc(CN2CCN(c3ccc(C(=O)NS(=O)(=O)c4ccc(NC5CCN(C6CCOCC6)CC5)c([N+](=O)[O-])c4)c(Oc4ccc5[nH]ccc5c4)c3)CC2)c(-c2ccc(Cl)cc2)c1 [Example 359, 4-{4-[(5-tert-butyl-4′-chloro-1,1′-biphenyl-2-yl)methyl]piperazin-1-yl}-2-(1H-indol-5-yloxy)-N-({3-nitro-4-[(1-tetrahydro-2H-pyran-4-ylpiperidin-4-yl)amino]phenyl}sulfonyl)benzamide] | 7.87 | < 6.18 | < 6.30
12 | CC1(C)CCC(CN2CCN(c3ccc(C(=O)NS(=O)(=O)c4ccc(NC5CCOCC5)c([N+](=O)[O-])c4)c(Oc4ccc5[nH]ccc5c4)c3)CC2)=C(c2ccc(Cl)cc2)C1 [Example 263, 4-(4-{[2-(4-chlorophenyl)-4,4-dimethylcyclohex-1-en-1-yl]methyl}piperazin-1-yl)-2-(1H-indol-5-yloxy)-N-{[3-nitro-4-(tetrahydro-2H-pyran-4-ylamino)phenyl]sulfonyl}benzamide] | 9.50 | < 6.18 | 7.55
13 | CC1(C)CCC(CN2CCN(c3ccc(C(=O)NS(=O)(=O)c4ccc(NCC5CCOCC5)c(C#N)c4)c(Oc4ccc5[nH]ccc5c4)c3)CC2)=C(c2ccc(Cl)cc2)C1 [Example 367, 4-(4-{[2-(4-chlorophenyl)-4,4-dimethylcyclohex-1-en-1-yl]methyl}piperazin-1-yl)-N-({3-cyano-4-[(tetrahydro-2H-pyran-4-ylmethyl)amino]phenyl}sulfonyl)-2-(1H-indol-5-yloxy)benzamide] | 8.34 | < 6.18 | < 6.30
